Test results: patent publication US20210401776A1, “METHOD OF TREATING […] SYNDROMES USING FENFLURAMINE ENANTIOMERS” (ZOGENIX INTERNATIONAL LIMITED, priority 2018, published 2021)
“Also recorded” adds a separate entry of the source.

Legend:
[1] = system: dizocilpine-treated mice; assay: step-through passive avoidance, dizocilpine-induced amnesia model; type: in vivo, Male Swiss OF-1 mice
[2] = system: dizocilpine-treated mice; assay: spontaneous alternation in the Y-maze, dizocilpine-induced amnesia model; type: in vivo, Male Swiss OF-1 mice
[3] = system: homozygous scn1Lab−/− mutants; assay: zebrafish locomotor assay (total distance in large movements, lardist); type: in vivo, zebrafish (Danio rerio); details: scn1Lab−/− mutants; for reduction in seizure behavior: fixed concentration, FIG. 3
From the text: (Baraban et al, 2013). Additional phenotypes of these mutants include: abnormal optokinetic response (OKR; 5 dpf); darkened pigmentation; death by 14 dpf; spontaneous seizure-like activity; abnormal (forebrain electrographic activity (3-7 dpf); seizure activity; lower levels of serotonin in scn1lab^−/− head homogenates at 7 dpf; zebrafish express orthologs of human serotonin (5HT) receptor subtypes at 5 dpf; nighttime hyperactivity (5 dpf); in open field-increased thigmotaxis. decreased movement (at 5 dpf); no differences in GABAergic neurons compared to wild type (5 dpf); 5-HT2a (hitr2aa/b) and S-HT2c; (htr2c11) orthologs expressed in larval heads in wild-type and scn1lab−/− mutants and in adult wild-type brains.
To assay the locomotor activity of homozygous scn1Lab−/− mutants and control WT scn1Lab+/+, zebrafish larvae were placed one larva per well in a 96-well plate in 100 μL of embryo medium from 4 to 8 days post-fertilization (dpf). Each day the larvae are tracked in an automated tracking device (ZebraBox™ apparatus; Viewpoint, Lyon, France) for 10 min after 30 min habituation (100-second integration interval). All recordings were performed at the same time during daytime period. The total distance in large movements was recorded and quantified using ZebraLab™ software (Viewpoint, Lyon, France). Data was pooled together from at least three independent experiments with at least 24 larvae per condition.
Scn1Lab^−/− mutants and WT scn1Lab+/+ larvae are arrayed in the same plate and treated at 6 days post fertilization (dpf) with the test compounds (25 μM), or VHC in individual wells of a 96-well plate. After incubation at 28° C. on a 14/10 hour light/dark cycle and 30-min chamber habituation 6 and 7 dpf larvae are tracked for locomotor activity for 10 min (100-second integration interval) under dark conditions. An incubation time of 1.5 hours is further referred to as short treatment (6 dpf). Furthermore, these larvae are analyzed after more than 22 hours incubation (7 dpf), i.e. long treatment. The total locomotor activity is quantified using the parameter lardist and plotted in cm. Data for each compound is pooled together from multiple independent experiments with at least 9 larvae per treatment condition.

[4] = system: homozygous scn1Lab−/− mutants; assay: epileptiform activity, open-field recordings in larval forebrain (LFP assay); type: in vivo, zebrafish (Danio rerio); details: for LFP Assay: Table 1, 25, 59 and 100 μM, oral via embryo medium

Cl.O=C(OCCN1CCOCC1)C1(c2ccccc2)CCCCC1 [PRE-084, 2-(4-Morpholinethyl)-1-phenylcyclohexanecarboxylate hydrochloride]
PP (%) ([1]; Table 2 StepThrough/Passive Avoidance, drug alone 0.1 mg/kg IP): 4.9 ± 9.9%
PP (%) ([1]; Table 2 StepThrough/Passive Avoidance, drug alone 0.3 mg/kg IP): 34.6 ± 10.5 ^3%
PP (%) ([1]; Table 3 StepThrough/PassiveAvoidance, drug alone 0.1 mg/kg IP): 7.6 ± 12.4%
PP (%) ([1]; Table 3 StepThrough/PassiveAvoidance, drug alone 0.3 mg/kg IP): 25.2 ± 9.8 ^3%
PP (%) ([1]; Table 4 StepThrough/PassiveAvoidance, drug alone 0.1 mg/kg IP): 8.8 ± 11.0%
PP (%) ([1]; Table 4 StepThrough/PassiveAvoidance, drug alone 0.3 mg/kg IP): 38.9 ± 10.4 ^3%
PP (%) ([2]; Table 2 Y-Maze, drug alone 0.1 mg/kg IP): 6.6 ± 12.8%
PP (%) ([2]; Table 2 Y-Maze, drug alone 0.3 mg/kg IP): 40.5 ± 9.2 ^1%
PP (%) ([2]; Table 3 Y-Maze, drug alone 0.1 mg/kg IP): 15.4 ± 10.9%
PP (%) ([2]; Table 3 Y-Maze, drug alone 0.3 mg/kg IP): 32.6 ± 8.9 ^1%
PP (%) ([2]; Table 4 Y Maze, drug alone 0.1 mg/kg IP): 17.2 ± 13.8%
PP (%) ([2]; Table 4 Y Maze, drug alone 0.3 mg/kg IP): 27.0 ± 9.5 ^1%

pregnenolone sulfate [PREGS]
PP (%) ([1]; Table 6 STPA, PREGS alone 5 mg/kg sc): 4.4 ± 16.3%
PP (%) ([1]; Table 6 STPA, PREGS alone 10 mg/kg sc): 21.0 ± 14.6%
PP (%) ([1]; Table 6 STPA, PREGS alone 20 mg/kg sc): 26.0 ± 19.1 ^4%
PP (%) ([2]; Table 6 YMT, PREGS alone 5 mg/kg sc): 3.5 ± 17.6%
PP (%) ([2]; Table 6 YMT, PREGS alone 10 mg/kg sc): 52.4 ± 12.2%
PP (%) ([2]; Table 6 YMT, PREGS alone 20 mg/kg sc): 72.1 ± 12.4 ^1%

Dehydroepiandrosterone sulfate [DHEAS]
PP (%) ([1]; Table 5 STPA, DHEAS alone 5 mg/kg sc): 19.1 ± 10.7%
PP (%) ([1]; Table 5 STPA, DHEAS alone 10 mg/kg sc): 47.2 ± 12.8%
PP (%) ([1]; Table 5 STPA, DHEAS alone 20 mg/kg sc): 40.3 ± 13.3^4%
PP (%) ([2]; Table 5 YMT, DHEAS alone 5 mg/kg sc): 18.4 ± 9.7%
PP (%) ([2]; Table 5 YMT, DHEAS alone 10 mg/kg sc): 29.8 ± 7.4%
PP (%) ([2]; Table 5 YMT, DHEAS alone 20 mg/kg sc): 57.9 ± 11.0^1%

CC(N)Cc1cccc(C(F)(F)F)c1 (single isomer, unassigned; (-)) [(−)-Norfenfluramine]
reduction in seizure behavior [3]: 45%
anti-epileptiform activity (frequency and cumulative duration of epileptiform events over 10 minutes) ([4]; 50 micromolar, FIGS. 4 and 5): less efficacious than (+)- and (−)-fenfluramine; also recorded: comparable
LFP Assay [4]: Inactive

CC(N)Cc1cccc(C(F)(F)F)c1 (single isomer, unassigned; (+)) [(+)-Norfenfluramine]
antiseizure activity in the zebrafish locomotor assay [3]: more efficacious than (−)-norfenfluramine
reduction in seizure behavior [3]: 80%
LFP Assay [4]: Less effective than (+)-FFA;
